In patent US20260256792A1, “TREATMENT OF CHRONIC SPONTANEOUS URTICARIA BY ADMINISTERING (R)-2-[3-[4-AMINO-3-(2-FLUORO-4-PHENOXY-PHENYL)PYRAZOLO[3,4-D]PYRIMIDIN-1-YL]PIPERIDINE-1-CARBONYL]-4-METHYL-4-[4-(OXETAN-3-YL)PIPERAZIN-1-YL]PENT-2-ENENITRILE” (priority 2023, published 2026):

System: moderate-to-severe chronic spontaneous urticaria (CSU)
Assay: Phase 2 CSU study: hives severity score over 7 days (HSS7)
Assay type: in vivo, human
Parameters: key to HSS7 Change from baseline, Median / HSS7, Median / HSS7, Max / HSS7 Change from baseline, Q1 / HSS7 Change from baseline, Q3 / HSS7 Change from baseline, Max: 7-day sum of daily hive scores, each 0 = none to 3 = >50 hives
Conditions: for median reduction in HSS7 at Week 12: omalizumab-naïve population; for HSS7, Mean (SD) / HSS7, Median: End of Study; for HSS7 change from baseline at Week 12, LS Mean / HSS7 change from baseline at Week 12, LS Mean Diff vs. placebo: ANCOVA
Description: The study comprises a 12 week, randomized, double-blind, placebo-controlled, multi-center, dose-ranging efficacy and safety phase, followed by a 40 week open label extension (OLE) phase (see FIG. 1).
The study consists of three phases and an optional OLE phase.
The UAS is a validated PRO measure. The daily UAS is the sum of the daily Hive Severity Score (HSS, ranging from 0=None to 3=more than 50 hives) and the daily Itch Severity Score (ISS, ranging from 0=None to 3=intense), the 2 key urticaria signs and symptoms which are wheals and itch. The daily UAS scores range from 0 to 6 point/day. Daily UAS scores are summed over 7-day period to create the UAS7, ranging from 0 to 42, and are composed of the HSS7 and ISS7 components. […] Patients were to complete the UAS using the e-diary. The e-diary was to be used once daily on the same time of each day recording of participant's answers to the urticaria activity score over 7 days (UAS7) questionnaire. For participants who entered the OLE phase, their answers to the UAS7 questionnaire were also to be collected from Week 20 to Week24 and from Week 48 to Week 52.
The following secondary endpoints were to be analyzed using the same approach as for the primary endpoint: • Change from baseline in UAS7 at Week 4 • Change from baseline in UAS7 at Week 12 (for US and US reference countries) • Change from baseline in ISS7 at Week 12 (except US and US reference countries) • Change from baseline in HSS7 at Week 12

[1] = 400 mg TID, Week 9, ITT Population
[2] = 400 mg TID, Week 9, Omalizumab-Naïve Population
[3] = 400 mg TID, Week 10, ITT Population
[4] = 400 mg TID, Week 11, ITT Population
[5] = 400 mg TID, Week 12, ITT population
[6] = 400 mg TID, patients with prior omalizumab use, last block under Week 12, double-blind period, WOCF imputation
[7] = 400 mg BID, Omalizumab-Naïve Population
[8] = 400 mg QPM, Omalizumab-Naïve Population
[9] = 400 mg TID, Patients with Prior Omalizumab Use
[10] = Omalizumab-Naïve Population with Outlier Removed from Analysis, 400 mg BID
[11] = Omalizumab-Naïve Population with Outlier Removed from Analysis, 400 mg QPM
[12] = Omalizumab-Naïve Population with Outlier Removed from Analysis, 400 mg TID
[13] = Omalizumab-naïve Population, 400 mg BID
[14] = Omalizumab-naïve Population, 400 mg QPM
[15] = Omalizumab-naïve Population, 400 mg TID

Compound: CC(C)(C=C(C#N)C(=O)N1CCC[C@@H](n2nc(-c3ccc(Oc4ccccc4)cc3F)c3c(N)ncnc32)C1)N1CCN(C2COC2)CC1 [rilzabrutinib, (R)-2-[3-[4-amino-3-(2-fluoro-4-phenoxy-phenyl)pyrazolo[3,4-d]pyrimidin-1-yl]piperidine-1-carbonyl]-4-methyl-4-[4-(oxetan-3-yl)piperazin-1-yl]pent-2-enenitrile]
- HSS7 Postbaseline Mean (SD) (400 mg TID, Week 8, Omalizumab-Naïve Population): 6.12 (4.80)
- HSS7 Postbaseline Mean (SD) (400 mg TID, Week 8, Omalizumab-Naïve Population with Outlier Removed from Analysis): 6.12 (4.80)
- HSS7 % Change difference for rilzabrutinib vs.placebo LS Mean (95% CI) [1]: −29.14 %
- HSS7 % Change from baseline LS Mean (SE) [1]: −53.06 (6.70) %
- HSS7 Change difference for rilzabrutinib vs.placebo LS Mean (95% CI) [1]: −3.67 (−6.21, −1.13)
- HSS7 Change from baseline LS Mean (SE) [1]: −7.79 (0.94)
- HSS7 Postbaseline Mean (SD) [1]: 5.43 (4.93)
- HSS7 % Change difference for rilzabrutinib vs.placebo LS Mean (95% CI) [2]: −27.94 %
- HSS7 Postbaseline Mean (SD) [2]: 5.88 (4.98)
- HSS7 Postbaseline Mean (SD) (400 mg TID, Week 9, Omalizumab-Naïve Population with Outlier Removed from Analysis): 5.88 (4.98)
- HSS7 % Change difference for rilzabrutinib vs.placebo LS Mean (95% CI) [3]: −28.54 %
- HSS7 % Change from baseline LS Mean (SE) [3]: −56.54 (6.68) %
- HSS7 Change difference for rilzabrutinib vs.placebo LS Mean (95% CI) [3]: −3.55 (−6.13, −0.97)
- HSS7 Change from baseline LS Mean (SE) [3]: −8.15 (0.96)
- HSS7 Postbaseline Mean (SD) [3]: 5.39 (5.05)
- HSS7 Postbaseline Mean (SD) (400 mg TID, Week 10, Omalizumab-Naïve Population): 5.87 (5.06)
- HSS7 Postbaseline Mean (SD) (400 mg TID, Week 10, Omalizumab-Naïve Population with Outlier Removed from Analysis): 5.87 (5.06)
- HSS7 % Change difference for rilzabrutinib vs.placebo LS Mean (95% CI) [4]: −28.42 %
- HSS7 % Change from baseline LS Mean (SE) [4]: −54.96 (6.95) %
- HSS7 Change difference for rilzabrutinib vs.placebo LS Mean (95% CI) [4]: −3.55 (−6.14, −0.95)
- HSS7 Change from baseline LS Mean (SE) [4]: −8.09 (0.96)
- HSS7 Postbaseline Mean (SD) [4]: 5.60 (5.41)
- HSS7 Postbaseline Mean (SD) (400 mg TID, Week 11, Omalizumab-Naïve Population): 6.17 (5.40)
- HSS7 Postbaseline Mean (SD) (400 mg TID, Week 11, Omalizumab-Naïve Population with Outlier Removed from Analysis): 6.17 (5.40)
- HSS7 % Change difference for rilzabrutinib vs.placebo LS Mean (95% CI) [5]: −29.54 %
- HSS7 % Change from baseline LS Mean (SE) [5]: −57.27 (7.06) %
- HSS7 Change difference for rilzabrutinib vs.placebo LS Mean (95% CI) [5]: −3.42 (−6.11, −0.74)
- HSS7 Change from baseline LS Mean (SE) [5]: −8.31 (1.00)
- HSS7 Postbaseline Mean (SD) [5]: 4.92 (4.89)
- HSS7 Postbaseline Mean (SD) (400 mg TID, Week 12, Omalizumab-Naïve Population): 5.23 (4.86)
- HSS7 Postbaseline Mean (SD) (400 mg TID, Week 12, Omalizumab-Naïve Population with Outlier Removed from Analysis): 5.23 (4.86)
- median reduction in HSS7 at Week 12 (400 mg TID): −7.64
- median reduction in HSS7 at Week 12 (400 mg TID, outlier removed): −7.89
- HSS7, Max [6]: 8.2
- HSS7, Min [6]: 4.0
- HSS7 Change from baseline, Max [6]: 0.0
- HSS7 Change from baseline, Mean (SD) [6]: −2.00 (2.83)
- HSS7 Change from baseline, Median [6]: −2.00
- HSS7 Change from baseline, Min [6]: −4.0
- HSS7 Change from baseline, Q1 [6]: −4.00
- HSS7 Change from baseline, Q3 [6]: 0.00
- HSS7 Percent change from baseline, Max [6]: 0.0%
- HSS7 Percent change from baseline, Mean (SD) [6]: −25.00 (35.36) percent
- HSS7 Percent change from baseline, Median [6]: −25.00%
- HSS7 Percent change from baseline, Min [6]: −50.0%
- HSS7 Percent change from baseline, Q1 [6]: −50.00%
- HSS7 Percent change from baseline, Q3 [6]: 0.00%
- HSS7, Mean (SD) [7]: 7.80 (8.76)
- HSS7, Median [7]: 7.00
- HSS7, Mean (SD) [8]: 6.13 (9.09)
- HSS7, Median [8]: 1.40
- HSS7, Mean (SD) (400 mg TID, Omalizumab-Naïve Population): 10.00 (5.79)
- HSS7, Mean (SD) [9]: 6.08 (2.95)
- HSS7, Median [9]: 6.08
- HSS7 at Week 12, Mean (ITT Population, 400 mg BID): 7.08
- HSS7 at Week 12, Median (ITT Population, 400 mg BID): 6.00
- HSS7 change from baseline at Week 12, Mean (ITT Population, 400 mg BID): −7.81
- HSS7 change from baseline at Week 12, Median (ITT Population, 400 mg BID): −5.30
- HSS7 change from baseline at Week 12, LS Mean (ITT Population, 400 mg BID): −6.78
- HSS7 change from baseline at Week 12, LS Mean Diff vs. placebo (ITT Population, 400 mg BID): −1.89
- HSS7 at Week 12, Median (ITT Population, 400 mg QPM): 8.75
- HSS7 change from baseline at Week 12, Mean (ITT Population, 400 mg QPM): −5.05
- HSS7 change from baseline at Week 12, Median (ITT Population, 400 mg QPM): −4.00
- HSS7 change from baseline at Week 12, LS Mean (ITT Population, 400 mg QPM): −4.75
- HSS7 change from baseline at Week 12, LS Mean Diff vs. placebo (ITT Population, 400 mg QPM): 0.14
- HSS7 at Week 12, Mean (ITT Population, 400 mg TID): 4.92
- HSS7 at Week 12, Median (ITT Population, 400 mg TID): 3.50
- HSS7 change from baseline at Week 12, Mean (ITT Population, 400 mg TID): −9.62
- HSS7 change from baseline at Week 12, Median (ITT Population, 400 mg TID): −9.00
- HSS7 change from baseline at Week 12, LS Mean (ITT Population, 400 mg TID): −8.31
- HSS7 change from baseline at Week 12, LS Mean Diff vs. placebo (ITT Population, 400 mg TID): −3.42
- HSS7 at Week 12, Mean [10]: 7.52
- HSS7 at Week 12, Median [10]: 7.00
- HSS7 change from baseline at Week 12, Mean [10]: −7.09
- HSS7 change from baseline at Week 12, Median [10]: −4.50
- HSS7 change from baseline at Week 12, LS Mean [10]: −6.56
- HSS7 change from baseline at Week 12, LS Mean Diff vs. placebo [10]: −2.20
- HSS7 at Week 12, Median [11]: 8.58
- HSS7 change from baseline at Week 12, Mean [11]: −4.85
- HSS7 change from baseline at Week 12, Median [11]: −4.00
- HSS7 change from baseline at Week 12, LS Mean [11]: −4.57
- HSS7 change from baseline at Week 12, LS Mean Diff vs. placebo [11]: −0.22
- HSS7 at Week 12, Mean [12]: 5.23
- HSS7 at Week 12, Median [12]: 4.08
- HSS7 change from baseline at Week 12, Mean [12]: −8.77
- HSS7 change from baseline at Week 12, Median [12]: −8.00
- HSS7 change from baseline at Week 12, LS Mean [12]: −7.89
- HSS7 change from baseline at Week 12, LS Mean Diff vs. placebo [12]: −3.54
- HSS7 at Week 12, Mean [13]: 7.52
- HSS7 at Week 12, Median [13]: 7.00
- HSS7 change from baseline at Week 12, Mean [13]: −7.09
- HSS7 change from baseline at Week 12, Median [13]: −4.50
- HSS7 change from baseline at Week 12, LS Mean [13]: −6.52
- HSS7 change from baseline at Week 12, LS Mean Diff vs. placebo [13]: −2.12
- HSS7 at Week 12, Median [14]: 8.58
- HSS7 change from baseline at Week 12, Mean [14]: −4.85
- HSS7 change from baseline at Week 12, Median [14]: −4.00
- HSS7 change from baseline at Week 12, LS Mean [14]: −4.49
- HSS7 change from baseline at Week 12, LS Mean Diff vs. placebo [14]: −0.09
- HSS7 at Week 12, Mean [15]: 5.23
- HSS7 at Week 12, Median [15]: 4.08
- HSS7 change from baseline at Week 12, Mean [15]: −8.77
- HSS7 change from baseline at Week 12, Median [15]: −8.00
- HSS7 change from baseline at Week 12, LS Mean [15]: −7.64
